{"source": "patent US20250042889A1", "about": "“3CLPRO PROTEASE INHIBITOR” (SHANGHAI QILU PHARMACEUTICAL RESEARCH AND DEVELOPMENT …, priority 2021, published 2025)", "target": "SARS-COV-2 3CLpro/Mpro protease (Severe acute respiratory syndrome coronavirus 2 (2019-nCoV) (SARS-CoV-2), UniProt P0DTD1)", "test": "Inhibitory effect on SARS-COV-2 3CLpro/Mpro protease by fluorescence resonance energy transfer", "assay_type": "biochemical", "details": "activity intervals A-D, read-out: IC50 (nM), Inhibition on SARS-CoV-2 3CLpro/Mpro protease"}
{"smiles": "CNc1cncc(C(=O)N2C[C@H](Nc3c(C(=O)N4C[C@@H](C)O[C@@H](C)C4)cc(Br)cc3[N+](=O)[O-])C[C@H]2C(=O)NC2CCN(CCOC)CC2(F)F)c1", "note": "(single isomer, unassigned) [Compound 453-P1]", "values": [{"measurement": "IC50", "result": "50 to 100", "unit": "nM"}]}
{"smiles": "O=C(c1cc(Br)cc([N+](=O)[O-])c1N[C@@H]1CCCN(C(=O)C2CNCC(F)(F)C2)C1)N1CCOC(F)(F)C1", "note": "(stereo in doubt) [Example 327]", "values": [{"measurement": "IC50", "result": "10 to 50", "unit": "nM"}]}
{"smiles": "O=C(c1cc(Br)cc([N+](=O)[O-])c1N[C@@H]1CCCN(C(=O)C2CNCC(F)(F)C2)C1)N1CCCC(F)(F)C1", "note": "(stereo in doubt) [Example 331]", "values": [{"measurement": "IC50", "result": "10 to 50", "unit": "nM"}]}
{"smiles": "CNc1cncc(C(=O)N2C[C@H](Nc3c(C(=O)N4C[C@@H](C)O[C@@H](C)C4)cc(Br)cc3[N+](=O)[O-])CC2C#N)c1", "note": "(stereo in doubt) [Example 362]", "values": [{"measurement": "IC50", "result": "50 to 100", "unit": "nM"}]}
{"smiles": "O=C(N[C@H]1CCCC[C@H]1Nc1c(C(=O)N2CC(F)(F)C2)cc(Br)cc1[N+](=O)[O-])c1cncc2ccccc12", "note": "[Example 1, N-((1S,2R)-2-((4-bromo-2-(3,3-difluoroazetidin-1-carbonyl)-6-nitrophenyl)amino)cyclohexyl) isoquinolin-4-formamide]", "values": [{"measurement": "IC50", "result": "10 to 50", "unit": "nM"}]}
{"smiles": "O=C(N[C@H]1CCCC[C@H]1Nc1c(C(=O)N2CCCCC2)cc(Br)cc1[N+](=O)[O-])c1cncc2ccccc12", "note": "[Example 2, N-((1S,2R)-2-((4-bromo-2-nitro-6-(piperidin-1-carbonyl)phenyl)amino)cyclohexyl) isoquinolin-4-formamide]", "values": [{"measurement": "IC50", "result": "< 10", "unit": "nM"}]}
{"smiles": "O=C(N[C@H]1CCCC[C@H]1Nc1c(C(=O)N2CCCC2)cc(Br)cc1[N+](=O)[O-])c1cncc2ccccc12", "note": "[Example 3, N-((1S,2R)-2-((4-bromo-2-nitro-6-(pyrrolidin-1-carbonyl)phenyl)amino)cyclohexyl) isoquinolin-4-formamide]", "values": [{"measurement": "IC50", "result": "< 10", "unit": "nM"}]}
{"smiles": "O=C(c1cccnc1)N1CCC[C@@H](Nc2c(C(=O)N3CCCCC3)cc(Br)cc2[N+](=O)[O-])C1", "note": "[Example 4, (R)-(5-bromo-2-((1-nicotinoylpiperidin-3-yl)amino)-3-nitrophenyl)(piperidin-1-yl)methanone]", "values": [{"measurement": "IC50", "result": "50 to 100", "unit": "nM"}]}
{"smiles": "O=C(c1cncc(Br)c1)N1CCC[C@@H](Nc2c(C(=O)N3CCCCC3)cc(Br)cc2[N+](=O)[O-])C1", "note": "[Example 5, (R)-(5-bromo-2-((1-(5-bromonicotinoyl)piperidin-3-yl)amino)-3-nitrophenyl)(piperidin-1-yl)methanone]", "values": [{"measurement": "IC50", "result": "< 10", "unit": "nM"}]}
{"smiles": "O=C(c1cc(Br)cc([N+](=O)[O-])c1N[C@@H]1CCCN(C(=O)c2cncc3ccccc23)C1)N1CCC(F)(F)CC1", "note": "[Example 6, (R)-(5-bromo-2-((1-(isoquinolin-4-carbonyl)piperidin-3-yl)amino)-3-nitrophenyl)(4,4-difluoropiperidin-1-yl)methanone]", "values": [{"measurement": "IC50", "result": "< 10", "unit": "nM"}]}
{"smiles": "CC1(C)C2CN(C(=O)c3cc(Br)cc([N+](=O)[O-])c3N[C@@H]3CCCN(C(=O)c4cncc5ccccc45)C3)CC21", "note": "(stereo partly drawn) [Example 7]", "values": [{"measurement": "IC50", "result": "10 to 50", "unit": "nM"}]}
{"smiles": "O=C(c1cc(Br)cc([N+](=O)[O-])c1N[C@@H]1CCCN(C(=O)c2cncc3cc(Cl)ccc23)C1)N1CCCCC1", "note": "[Example 8, (R)-(5-bromo-2-((1-(7-chloroisoquinolin-4-carbonyl)piperidin-3-yl)amino)-3-nitrophenyl)(piperidin-1-yl)methanone]", "values": [{"measurement": "IC50", "result": "< 10", "unit": "nM"}]}
{"smiles": "O=C(N[C@H]1CCCC[C@H]1Nc1c(C(=O)N2CCCCC2)cc(Br)cc1C(F)(F)F)c1cncc2ccccc12", "note": "[Example 9, N-((1S,2R)-2-((4-Bromo-2-(piperidin-1-carbonyl)-6-(trifluoromethyl)phenyl)amino)cyclohexyl) isoquinolin-4-formamide]", "values": [{"measurement": "IC50", "result": "< 10", "unit": "nM"}]}
{"smiles": "O=C(c1cc(Br)cc([N+](=O)[O-])c1N[C@@H]1CCCN(C(=O)c2cncc3ccccc23)C1)N1CCNCC1", "note": "[Example 10]", "values": [{"measurement": "IC50", "result": "10 to 50", "unit": "nM"}]}
{"smiles": "O=C(c1cc(Br)cc([N+](=O)[O-])c1N[C@@H]1CCCN(C(=O)c2cnnc3ccccc23)C1)N1CCCCC1", "note": "[Example 11, (R)-(5-bromo-2-((1-(4-cinnolin-carbonyl)piperidin-3-yl)amino)-3-nitrophenyl)(piperidin-1-yl)methanone]", "values": [{"measurement": "IC50", "result": "50 to 100", "unit": "nM"}]}
{"smiles": "O=C(c1cc(Br)cc([N+](=O)[O-])c1N[C@@H]1CCN(C(=O)c2cncc3ccccc23)C1)N1CCCCC1", "note": "[Example 12, (R)-(5-bromo-2-((1-(isoquinolin-4-carbonyl)pyrrolidin-3-yl)amino)-3-nitrophenyl)(piperidin-1-yl)methanone]", "values": [{"measurement": "IC50", "result": "10 to 50", "unit": "nM"}]}
{"smiles": "O=C(c1cc(Br)cc([N+](=O)[O-])c1N[C@@H]1CCCN(C(=O)c2cncc3ccccc23)C1)N1CCCCC1", "note": "[Example 13, (R)-(5-bromo-2-((1-(isoquinolin-4-carbonyl)piperidin-3-yl)amino)-3-nitrophenyl)(piperidin-1-yl)methanone]", "values": [{"measurement": "IC50", "result": "< 10", "unit": "nM"}]}
{"smiles": "O=C(N[C@H]1CCCC[C@H]1Nc1c(C(=O)N2CCCCC2)cc(Br)cc1[N+](=O)[O-])c1cncc(Br)c1", "note": "[Example 14]", "values": [{"measurement": "IC50", "result": "10 to 50", "unit": "nM"}]}
{"smiles": "O=C(c1cc(Br)cc([N+](=O)[O-])c1N[C@@H]1CCCN(C(=O)c2cncc3ccccc23)C1)N1CC2CC2C1", "note": "(stereo partly drawn) [Example 15, ((3R)-3-((2-(3-azabicyclo[3.1.0]hexan-3-carbonyl)-4-bromo-6-nitrophenyl)amino)piperidin-1-yl)(isoquinolin-4-yl)methanone]", "values": [{"measurement": "IC50", "result": "10 to 50", "unit": "nM"}]}
{"smiles": "O=C(N[C@H]1CCCC[C@H]1Nc1c(C(=O)N2CCC(F)(F)CC2)cc(Br)cc1[N+](=O)[O-])c1cc(=O)[nH]c2ccccc12", "note": "[Example 16, N-((1S,2R)-2-((4-bromo-2-(4,4-difluoropiperidin-1-carbonyl)-6-nitrophenyl)amino)cyclohexyl)-2-oxo-1,2-dihydroquinolin-4-formamide]", "values": [{"measurement": "IC50", "result": "10 to 50", "unit": "nM"}]}
{"smiles": "C[C@@H]1CN(C(=O)c2cc(Br)cc([N+](=O)[O-])c2N[C@@H]2CCCN(C(=O)c3cncc4[nH]ccc34)C2)C[C@H](C)O1", "note": "[Example 17]", "values": [{"measurement": "IC50", "result": "10 to 50", "unit": "nM"}]}
{"smiles": "C[C@@H]1CN(C(=O)c2cc(Br)cc([N+](=O)[O-])c2N[C@@H]2CCCN(C(=O)C3CCNC(=O)C3)C2)C[C@H](C)O1", "note": "(stereo partly drawn) [Example 18, 4-((R)-3-((4-bromo-2-((2R,6S)-2,6-dimethylmorpholin-4-carbonyl)-6-nitrophenyl)amino)piperidin-1-carbonyl)piperidin-2-one]", "values": [{"measurement": "IC50", "result": "100 to 200", "unit": "nM"}]}
{"smiles": "CNc1cncc(C(=O)N2CCC[C@@H](Nc3c(C(=O)N4CCC(N5CCOCC5)CC4)cc(Br)cc3[N+](=O)[O-])C2)c1", "note": "[Example 19, (R)-(5-bromo-2-((1-(5-(methylamino)nicotinoyl)piperidin-3-yl)amino)-3-nitrophenyl)(4-morpholinopiperidin-1-yl)methanone]", "values": [{"measurement": "IC50", "result": "10 to 50", "unit": "nM"}]}
{"smiles": "CNc1cncc(C(=O)N2C[C@H](Nc3c(C(=O)N4C[C@@H](C)O[C@@H](C)C4)cc(Br)cc3[N+](=O)[O-])C3(CC3)C2)c1", "note": "[Example 20]", "values": [{"measurement": "IC50", "result": "10 to 50", "unit": "nM"}]}
{"smiles": "CNc1cncc(C(=O)N2C[C@H](Nc3c(C(=O)N4C[C@@H](C)N[C@@H](C)C4)cc(Br)cc3[N+](=O)[O-])C3(CC3)C2)c1", "note": "[Example 21]", "values": [{"measurement": "IC50", "result": "10 to 50", "unit": "nM"}]}
{"smiles": "CNc1cncc(C(=O)N2CCC[C@@H](Nc3c(C(=O)N4CCN(CC(F)(F)F)CC4)cc(Br)cc3[N+](=O)[O-])C2)c1", "note": "[Example 22]", "values": [{"measurement": "IC50", "result": "10 to 50", "unit": "nM"}]}
{"smiles": "CNc1cncc(C(=O)N2CCC[C@@H](Nc3c(C(=O)N4CCN(C(=O)C(F)(F)F)CC4)cc(Br)cc3[N+](=O)[O-])C2)c1", "note": "[Example 23, (R)-1-(4-(5-bromo-2-((1-(5-(methylamino)nicotinoyl)piperidin-3-yl)amino)-3-nitrobenzoyl)piperazin-1-yl)-2,2,2-trifluoroethan-1-one]", "values": [{"measurement": "IC50", "result": "10 to 50", "unit": "nM"}]}
{"smiles": "O=C(c1cc[nH]c(=O)c1)N1CCC[C@@H](Nc2c(C(=O)N3CCC(F)(F)CC3)cc(Br)cc2[N+](=O)[O-])C1", "note": "[Example 24, (R)-4-(3-((4-bromo-2-(4,4-difluoropiperidin-1-carbonyl)-6-nitrophenyl)amino)piperidin-1-carbonyl)pyridin-2 (1H)-one]", "values": [{"measurement": "IC50", "result": "100 to 200", "unit": "nM"}]}
{"smiles": "O=C1CN(C(=O)c2cc(Br)cc([N+](=O)[O-])c2N[C@@H]2CCCC[C@@H]2NC(=O)c2cncc3cc(Cl)ccc23)CCN1", "note": "[Example 25, N-((1S,2R)-2-((4-bromo-2-nitro-6-(3-oxopiperazin-1-carbonyl)phenyl)amino)cyclohexyl)-7-chloroisoquinolin-4-formamide]", "values": [{"measurement": "IC50", "result": "10 to 50", "unit": "nM"}]}
{"smiles": "Cc1cc(C(=O)N2CCC[C@@H](Nc3c(C(=O)N4CCOCC4)cc(Br)cc3[N+](=O)[O-])C2)cc(=O)[nH]1", "note": "[Example 26, (R)-4-(3-((4-bromo-2-(morpholin-4-carbonyl)-6-nitrophenyl)amino)piperidin-1-carbonyl)-6-methylpyridin-2 (1H)-one]", "values": [{"measurement": "IC50", "result": "10 to 50", "unit": "nM"}]}
{"smiles": "Cc1cc(C(=O)N2CCC[C@@H](Nc3c(C(=O)N4C[C@@H](C)O[C@@H](C)C4)cc(Br)cc3[N+](=O)[O-])C2)cc(=O)[nH]1", "note": "[Example 27, 4-((R)-3-((4-bromo-2-((2S,6R)-2,6-dimethylmorpholin-4-carbonyl)-6-nitrophenyl)amino)piperidin-1-carbonyl)-6-methylpyridin-2 (1H)-one]", "values": [{"measurement": "IC50", "result": "10 to 50", "unit": "nM"}]}
{"smiles": "O=C(c1cc(Br)cc([N+](=O)[O-])c1N[C@@H]1CCCN(C(=O)c2cncc3[nH]ccc23)C1)N1CCC(F)(F)CC1", "note": "[Example 28]", "values": [{"measurement": "IC50", "result": "10 to 50", "unit": "nM"}]}
{"smiles": "CNc1cncc(C(=O)N2CCC[C@@H](Nc3c(C(=O)N4CCN(C)CC4)cc(Br)cc3[N+](=O)[O-])C2)c1", "note": "[Example 29, (R)-(5-bromo-2-((1-(5-(methylamino)nicotinoyl)piperidin-3-yl)amino)-3-nitrophenyl)(4-methylpiperazin-1-yl)methanone]", "values": [{"measurement": "IC50", "result": "10 to 50", "unit": "nM"}]}
{"smiles": "CNc1cncc(C(=O)N2CC(Nc3c(C(=O)N4CCCCC4)cc(Br)cc3[N+](=O)[O-])C(F)(F)C2)c1", "note": "(stereo not drawn) [Example 32, (5-Bromo-2-((4,4-difluoro-1-(5-(methylamino)nicotinoyl)pyrrolidin-3-yl)amino)-3-nitrophenyl)(piperidin-1-yl)methanone]", "values": [{"measurement": "IC50", "result": "10 to 50", "unit": "nM"}]}
{"smiles": "C[C@H]1CCCN(C(=O)c2cc(Br)cc([N+](=O)[O-])c2N[C@@H]2CCCN(C(=O)[C@H]3CC(=O)N[C@@H](C)C3)C2)C1", "note": "[Example 33, (4R,6S)-4-((R)-3-((4-bromo-2-((S)-3-methylpiperidin-1-carbonyl)-6-nitrophenyl)amino)piperidin-1-carbonyl)-6-methylpiperidin-2-one]", "values": [{"measurement": "IC50", "result": "10 to 50", "unit": "nM"}]}
{"smiles": "CNc1cncc(C(=O)N2CCC[C@@H](Nc3c(C(=O)N4CCO[C@H](CF)C4)cc(Br)cc3[N+](=O)[O-])C2)c1", "note": "[Example 37]", "values": [{"measurement": "IC50", "result": "10 to 50", "unit": "nM"}]}
